In ChEMBL document CHEMBL1201862, “PubChem BioAssay data set” (2004):
The source made the active and inactive calls.

How the values were obtained:
[1] = A Cell Based Secondary Assay To Explore Cytotoxicity of Compounds that Sensitize Mycobacterium Tuberculosis to Beta-Lactam Antibiotics.; type: functional
[2] = cytotoxicity in HEK-293T cells, dose response, cytotoxicity control for TCR NF-kB inhibitor project, luminescence, T-cell screen hits (AID 489026); type: functional, cell-based;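 also: cells exposed to compound about 14 hours before the viability readout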
[3] = system: Streptococcus sp. 'group A'; assay: growth inhibition of control SK(-) GAS strain, dose response, counter-screen for streptokinase expression inhibitor project, luminescence, kanamycin, BacTiterGlo, confirmation (AID 1900); type: functional, organism-based
[4] = cells; type: functional
[5] = system: Streptococcus; assay: Group A Streptococcus viability loss, dose response, counter-screen for streptokinase expression inhibitor project, luminescence, BacTiterGlo (AID 1915); type: functional, organism-based;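 also: potency for reduction of bacterial viability or growth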
[6] = THP-1 cell cytotoxicity, dose response, cytotoxicity control for non-replicating M. tuberculosis project (AID 489025); type: functional
[7] = Vero E6 cell cytotoxicity, dose response, cytotoxicity control for non-replicating M. tuberculosis project, secondary assay (AID 492998); type: functional, VeroE6; details: Vero C1008
[8] = system: BJ; assay: cells; type: functional, cell-based; details: Homo sapiens
[9] = cytotoxicity toward DRD oncogenic fibroblasts, dose response, cell-based, non-viral oncogenic, luminescence (AID 1934); type: functional; details: Homo sapiens
[10] = system: BJ; assay: cytotoxicity toward BJ-TERT fibroblasts, dose response, cell-based, RAS-independent, luminescence (AID 1933); type: functional; details: Homo sapiens
[11] = system: BJ; assay: cytotoxicity toward BJ-TERT-LT-ST fibroblasts, dose response, cell-based, RAS-independent, luminescence (AID 1935); type: functional; details: Homo sapiens;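 also: BJ fibroblasts immortalized with TERT plus LT and ST oncogenes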
[12] = cytotoxicity in HEK-293T cells, dose response, cytotoxicity control for BCR NF-kB inhibitor project, luminescence, B-cell screen hits (AID 489021); type: functional, cell-based;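 also: HEK-293T cells carrying an NF-kB luciferase reporter; cells exposed to compound for about 14 hours before viability readout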
[13] = biological target: Cytochrome P450 3A4 (Homo sapiens, UniProt P08684);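 also: CYP3A4 tested as one member of a cytochrome P450 panel screen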
[14] = biological target: Estrogen receptor beta (Homo sapiens, UniProt Q92731);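 also: recombinant ER-beta bound to coactivator SRC1 peptide in presence of estradiol agonist; inhibitors block coactivator peptide binding and lower the FRET signal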
[15] = biological target: Large T antigen (Simian virus 40, UniProt P03070); type: functional, Betapolyomavirus macacae;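 also: Confirmatory-stage PubChem screen for compounds that inhibit SV40 T antigen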
[16] = biological target: T1, Estrogen receptor (Homo sapiens, UniProt P03372);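 also: potency for inhibiting coactivator peptide recruitment to the receptor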
T1 sequence (P03372 whole entry): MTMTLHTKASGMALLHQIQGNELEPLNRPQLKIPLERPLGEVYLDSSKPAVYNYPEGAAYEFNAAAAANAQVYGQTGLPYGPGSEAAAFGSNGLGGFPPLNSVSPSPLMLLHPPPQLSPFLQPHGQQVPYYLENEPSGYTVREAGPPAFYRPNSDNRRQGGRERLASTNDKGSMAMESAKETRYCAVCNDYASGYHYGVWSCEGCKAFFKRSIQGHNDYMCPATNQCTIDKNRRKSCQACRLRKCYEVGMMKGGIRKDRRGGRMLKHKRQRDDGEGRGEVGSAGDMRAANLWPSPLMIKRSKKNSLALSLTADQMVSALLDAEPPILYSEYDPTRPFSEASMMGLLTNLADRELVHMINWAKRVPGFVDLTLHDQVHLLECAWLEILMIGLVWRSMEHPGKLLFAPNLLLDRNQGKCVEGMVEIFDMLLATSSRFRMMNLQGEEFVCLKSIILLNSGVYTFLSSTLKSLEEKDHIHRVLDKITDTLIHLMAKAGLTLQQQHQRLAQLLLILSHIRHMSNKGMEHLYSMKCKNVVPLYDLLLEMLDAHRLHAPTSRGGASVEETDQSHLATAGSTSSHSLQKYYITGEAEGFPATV

[17] = growth suppression of beta-catenin-knockout colon cells, dose response, cell-based, HCT116, human colon tumor (AID 1045); type: functional;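 also: HCT116 colon tumor cells with beta catenin knocked out; cells exposed to compound for 60 hours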
[18] = growth suppression of PTEN-null colon cells, dose response, cell-based, HCT116 PTEN knockout (AID 1047); type: functional;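 also: HCT116 colon tumor cells with PTEN knocked out; cells exposed to compound for 60 hours before readout; potency for loss of cell viability measured by luminescence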

Sequence of Cytochrome P450 3A4 (P08684 whole entry): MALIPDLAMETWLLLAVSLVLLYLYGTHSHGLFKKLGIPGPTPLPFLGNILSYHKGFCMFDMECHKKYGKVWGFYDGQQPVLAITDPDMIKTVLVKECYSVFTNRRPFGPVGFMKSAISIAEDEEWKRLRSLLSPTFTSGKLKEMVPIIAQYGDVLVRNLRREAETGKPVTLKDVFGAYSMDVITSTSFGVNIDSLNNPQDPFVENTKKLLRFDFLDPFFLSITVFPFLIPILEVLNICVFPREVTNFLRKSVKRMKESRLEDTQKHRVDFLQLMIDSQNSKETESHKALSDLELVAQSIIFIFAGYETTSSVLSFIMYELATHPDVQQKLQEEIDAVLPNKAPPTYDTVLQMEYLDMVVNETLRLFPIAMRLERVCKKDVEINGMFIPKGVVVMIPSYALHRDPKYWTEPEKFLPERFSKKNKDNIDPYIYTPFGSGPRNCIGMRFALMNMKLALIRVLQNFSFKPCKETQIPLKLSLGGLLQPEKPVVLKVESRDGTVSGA
Sequence of Estrogen receptor beta (Q92731 whole entry): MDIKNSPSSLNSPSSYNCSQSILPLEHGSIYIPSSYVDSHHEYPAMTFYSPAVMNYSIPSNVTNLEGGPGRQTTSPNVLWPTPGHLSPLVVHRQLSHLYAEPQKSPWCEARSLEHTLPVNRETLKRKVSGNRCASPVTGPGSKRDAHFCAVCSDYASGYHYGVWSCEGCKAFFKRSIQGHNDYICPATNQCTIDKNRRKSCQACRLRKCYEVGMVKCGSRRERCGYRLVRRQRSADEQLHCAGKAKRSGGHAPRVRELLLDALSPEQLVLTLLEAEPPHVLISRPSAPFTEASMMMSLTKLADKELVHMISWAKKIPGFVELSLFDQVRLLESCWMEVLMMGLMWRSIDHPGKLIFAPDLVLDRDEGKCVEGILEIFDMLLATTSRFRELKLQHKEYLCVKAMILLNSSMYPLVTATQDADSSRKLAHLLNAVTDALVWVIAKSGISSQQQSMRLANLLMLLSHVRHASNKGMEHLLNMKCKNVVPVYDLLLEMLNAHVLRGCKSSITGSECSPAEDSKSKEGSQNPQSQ
Sequence of Large T antigen (P03070 whole entry): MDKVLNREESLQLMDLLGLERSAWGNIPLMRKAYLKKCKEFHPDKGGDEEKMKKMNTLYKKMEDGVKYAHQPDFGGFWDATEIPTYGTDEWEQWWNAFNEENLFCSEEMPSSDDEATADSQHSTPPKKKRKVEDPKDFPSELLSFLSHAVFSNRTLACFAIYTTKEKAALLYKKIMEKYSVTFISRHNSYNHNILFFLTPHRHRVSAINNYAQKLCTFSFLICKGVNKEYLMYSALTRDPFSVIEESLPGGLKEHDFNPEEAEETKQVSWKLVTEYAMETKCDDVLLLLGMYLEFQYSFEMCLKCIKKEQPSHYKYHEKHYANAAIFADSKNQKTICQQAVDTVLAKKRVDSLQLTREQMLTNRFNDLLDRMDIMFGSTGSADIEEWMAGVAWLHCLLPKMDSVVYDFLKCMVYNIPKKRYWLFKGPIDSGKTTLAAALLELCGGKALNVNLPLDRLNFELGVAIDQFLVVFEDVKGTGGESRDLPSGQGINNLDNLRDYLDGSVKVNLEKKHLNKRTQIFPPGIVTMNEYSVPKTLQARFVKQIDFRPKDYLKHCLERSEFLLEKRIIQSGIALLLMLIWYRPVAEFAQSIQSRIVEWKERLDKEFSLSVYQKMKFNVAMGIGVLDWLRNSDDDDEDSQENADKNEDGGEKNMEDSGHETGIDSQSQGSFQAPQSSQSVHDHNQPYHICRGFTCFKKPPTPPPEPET

In the case of CCOC(=O)c1cc(-c2ccc(C)cc2)n(CCC(=O)N2CCN(c3ccccn3)CC2)c1C, the CC50 [1] is reported as > 40 µM (active).
With COc1ccccc1CNS(=O)(=O)c1ccc(-c2cnc(C3CC3)o2)cc1 the IC50 [2] was > 80 µM (inactive).
With CC(C)(C)c1ccc(C(=O)Nc2nnc(C3=COCCO3)o2)cc1 the EC50 [3] was 0.429 µM (active), the IC50 [4] was 2.11 µM (active) and the EC50 [5] was 9.1 µM (active). For the same molecule, the CC50 [6] was 34.2 µM (active) and the CC50 [7] was > 20 µM (active).
In the case of COc1ccccc1CNS(=O)(=O)c1ccc(-c2cc(C)no2)cc1, the EC50 [8] is reported as 53.8 µM (inconclusive), the IC50 [2] is reported as 79.8 µM (inactive) and the EC50 [9] is reported as 1.34 µM (active). The EC50 [10] was 1.92 µM (active) and the EC50 [11] was 0.83 µM (active).
With Cc1cc(C)cc(OCc2nnc(SCC(=O)c3ccccc3)o2)c1 the IC50 [12] was > 80 µM (inactive).
With Cn1c(S)nnc1CCNC(=O)c1ccccc1Cl the AC50 [13] was “inconclusive”.
In the case of Oc1ccc(/C=N/c2ccc(N3CCOCC3)cc2)c(O)c1, the IC50 [14] is reported as 14.4 µM (active), the IC50 [15] is reported as 12.9 µM (active) and the IC50 [16] is reported as 30.4 µM (not active).
For COc1cc2c(=O)n(Cc3ccco3)c(=O)n(CC(=O)c3cccc(Br)c3)c2cc1OC, the EC50 [17] was 9.71 µM (active), the CC50 [1] was 22.2 µM (active) and the EC50 [18] was 9.13 µM (active).
With COC(=O)c1cc2c(cn1)[nH]c1ccccc12 [BETA-CCM] the AC50 [13] was “inconclusive”.
For COc1cc2nc(N3CCN(C(=O)c4ccco4)CC3)nc(N)c2cc1OC [PRAZOSIN], the AC50 [13] was “inconclusive”.
